Data set [1] in a line: Intrinsic dissolution studies. It is filed as physicochemical. The settings on record: crystalline solid. As to the method:
Intrinsic dissolution measurements were performed using a fiber optic probe (Delphian® type 11A fiber optic workstation, baseline correction mode with sample wavelength maximum of 279 nm and baseline wavelength of 350 nm) at 37° C. and 100 rpm in a USP apparatus II dissolution vessel (Vankel VK7010) containing 500 mL of pure water. Disks 0.8 cm diameter were compressed using 70 mg of solid in stainless steel dies (Vankel Woods apparatus) at 1000 lbs for 60 seconds with a Carver Press. Dissolution studies for cocrystal 2 lasted 90 minutes, after which time the disks were recovered, carefully ground and checked by XRPD for the presence of cocrystal. Due to the low solubility of Compound 1, dissolution studies were run over 24 hours in order to get a measurable rate.

A short description of data set [2]: Pharmacokinetic evaluation in beagle dogs after oral dosing of neat solid in gelatin capsule. It is filed as in vivo. Conditions: oral dosing of the crystalline solid. The procedure:
A study was conducted to compare the pharmacokinetic profiles of Compound 1 and Cocrystal 2. Compound 1 and Cocrystal 2 were administered as neat solids to six male beagle dogs in a crossover study with a two-week washout period between treatments. Each dog was dosed with either Compound 1 or Cocrystal 2 in a gelatin capsule after an overnight fast. All research involving animal subjects adhered to the “Principles of Laboratory Animal Care” (NIH publication #85-23). Dose levels of 5 mg/kg and 50 mg/kg were each evaluated. Each dog received one size #2 capsule for the 5 mg/kg dose. Dosing at 50 mg/kg required use of two size #00 capsules for each dog. Blood samples were collected at intervals for 36 hours post-dose. Non-compartmental pharmacokinetic metrics were determined using WinNonlin v. 1.5 (Scientific Consulting, Inc., Mountain View, Calif.). The area under the plasma concentration-time curve (AUC) was estimated by application of the linear trapezoidal rule. Statistical analyses were conducted using Microsoft Excel 2000; statistical significance was considered when p<0.05.

The nature of data set [3]: Solubility in aqueous systems. It is filed as physicochemical. From the text:
Five cocrystals of 2-4-(4-chloro-2-fluorophenoxy)phenyl]pyrimidine-4-carboxamide (Compound 1) were identified by using techniques of the disclosure. […] Although the permeability of Compound 1 could not be measured in Caco-2 cells because of its inherently low solubility, Compound 1 is suspected to be a Class II compound (low solubility and high permeability) as described in the biopharmaceutical drug classification scheme (BCS) (Amidon, Gordon L., Lennernaes, Hans, Shah, Vinod P. and Crison, John R. (1995) “A theoretical basis for a biopharmaceutic drug classification: the correlation of in vitro drug product dissolution and in vivo bioavailability” Pharmaceutical Research […], 12(3), 4 13-20). The calculated octanol/water partition coefficient (clogP) for Compound 1 is 2.9, supporting this suspicion (Yazdanian, Mehran, Glynn, Susan L., Wright, James L., and Hawi, Amale. (1998) “Correlating partitioning and Caco-2 cell permeability of structurally diverse small molecular weight compounds” Pharmaceutical Research 1998 15(9), 1490-1494). […] Cocrystallization techniques were used as a tool to improve the pharmaceutical properties of Compound 1.

SMILES strings stand for the structures.

`NC(=O)c1ccnc(-c2ccc(Oc3ccc(Cl)cc3F)cc2)n1` [Compound 1]: the in-vitro dissolution result in data set [1] was “low”. The in-vivo plasma concentrations entry in data set [2] is recorded as “low”. The “solubility in aqueous systems” value in data set [3] was less than 0.1 µg/mL.

For the origin of these results see patent US20070088508A1, “Cocrystallization methods” (priority 2005, published 2007).
